{"source": "ChEMBL document CHEMBL5678818", "about": "“Discovery of potent SOS1 inhibitors that block RAS activation via disruption of the RAS-SOS1 interaction” (Proc Natl Acad Sci U S A, 2019)", "key": {"[1]": {"tested_on": "Epidermal growth factor receptor (Homo sapiens), P00533 [L858R]", "experiment": "Inhibition of EGFR L858R mutant (unknown origin) assessed as residual activity at 100 nM by KINOMEscan analysis relative to control"}, "[2]": {"target": "Cyclin-dependent kinase 14 (Homo sapiens) (UniProt O94921)", "sequence (O94921 whole entry)": "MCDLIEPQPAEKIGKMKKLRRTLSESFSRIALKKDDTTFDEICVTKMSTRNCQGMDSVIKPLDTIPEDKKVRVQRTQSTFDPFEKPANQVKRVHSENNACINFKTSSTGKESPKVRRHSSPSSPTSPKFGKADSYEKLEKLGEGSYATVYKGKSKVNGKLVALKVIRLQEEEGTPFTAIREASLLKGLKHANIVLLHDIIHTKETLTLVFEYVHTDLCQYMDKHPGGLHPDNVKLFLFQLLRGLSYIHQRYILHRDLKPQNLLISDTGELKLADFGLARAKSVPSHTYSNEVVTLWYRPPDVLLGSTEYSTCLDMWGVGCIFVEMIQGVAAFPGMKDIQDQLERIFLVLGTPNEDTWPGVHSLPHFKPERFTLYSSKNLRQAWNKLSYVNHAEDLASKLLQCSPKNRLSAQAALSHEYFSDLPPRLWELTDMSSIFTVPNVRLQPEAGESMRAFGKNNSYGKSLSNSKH", "experiment": "Inhibition of PFTK1 (unknown origin) assessed as residual activity at 100 nM by KINOMEscan analysis relative to control"}, "[3]": {"target": "Phosphatidylinositol 4,5-bisphosphate 3-kinase catalytic subunit alpha isoform (Homo sapiens) (UniProt P42336)", "sequence (P42336 whole entry, canonical isoform)": "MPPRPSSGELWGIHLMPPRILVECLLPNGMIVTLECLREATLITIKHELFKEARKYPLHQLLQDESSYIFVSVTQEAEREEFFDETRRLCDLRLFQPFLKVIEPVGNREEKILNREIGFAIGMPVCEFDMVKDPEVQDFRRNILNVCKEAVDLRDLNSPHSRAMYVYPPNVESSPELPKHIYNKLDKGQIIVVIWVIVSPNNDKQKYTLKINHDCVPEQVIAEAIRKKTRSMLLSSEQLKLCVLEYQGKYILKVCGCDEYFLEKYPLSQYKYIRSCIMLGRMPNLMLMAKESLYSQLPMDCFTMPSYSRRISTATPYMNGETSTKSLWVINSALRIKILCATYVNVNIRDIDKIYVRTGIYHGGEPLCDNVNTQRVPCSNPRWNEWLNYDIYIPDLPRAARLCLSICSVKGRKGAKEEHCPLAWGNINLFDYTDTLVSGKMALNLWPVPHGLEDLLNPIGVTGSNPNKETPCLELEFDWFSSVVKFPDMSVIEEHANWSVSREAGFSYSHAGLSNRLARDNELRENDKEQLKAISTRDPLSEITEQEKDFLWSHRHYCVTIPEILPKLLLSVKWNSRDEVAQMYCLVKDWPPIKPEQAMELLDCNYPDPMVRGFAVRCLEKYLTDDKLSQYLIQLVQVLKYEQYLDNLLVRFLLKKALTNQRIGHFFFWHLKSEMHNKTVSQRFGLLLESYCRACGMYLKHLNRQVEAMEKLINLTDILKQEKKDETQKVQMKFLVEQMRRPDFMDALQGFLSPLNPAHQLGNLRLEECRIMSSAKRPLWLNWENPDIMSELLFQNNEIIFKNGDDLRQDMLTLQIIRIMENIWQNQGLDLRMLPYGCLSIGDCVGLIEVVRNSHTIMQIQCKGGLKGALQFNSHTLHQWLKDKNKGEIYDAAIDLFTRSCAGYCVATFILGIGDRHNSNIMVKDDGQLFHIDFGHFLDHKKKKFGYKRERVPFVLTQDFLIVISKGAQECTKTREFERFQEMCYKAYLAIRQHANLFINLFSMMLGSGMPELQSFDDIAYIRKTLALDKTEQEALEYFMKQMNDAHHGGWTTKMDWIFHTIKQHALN", "experiment": "Inhibition of PIK3CA (unknown origin) assessed as residual activity at 100 nM by KINOMEscan analysis relative to control"}, "[4]": {"target": "T1, Dual serine/threonine and tyrosine protein kinase (Homo sapiens) (UniProt Q6XUX3)", "T1 sequence (whole entry)": "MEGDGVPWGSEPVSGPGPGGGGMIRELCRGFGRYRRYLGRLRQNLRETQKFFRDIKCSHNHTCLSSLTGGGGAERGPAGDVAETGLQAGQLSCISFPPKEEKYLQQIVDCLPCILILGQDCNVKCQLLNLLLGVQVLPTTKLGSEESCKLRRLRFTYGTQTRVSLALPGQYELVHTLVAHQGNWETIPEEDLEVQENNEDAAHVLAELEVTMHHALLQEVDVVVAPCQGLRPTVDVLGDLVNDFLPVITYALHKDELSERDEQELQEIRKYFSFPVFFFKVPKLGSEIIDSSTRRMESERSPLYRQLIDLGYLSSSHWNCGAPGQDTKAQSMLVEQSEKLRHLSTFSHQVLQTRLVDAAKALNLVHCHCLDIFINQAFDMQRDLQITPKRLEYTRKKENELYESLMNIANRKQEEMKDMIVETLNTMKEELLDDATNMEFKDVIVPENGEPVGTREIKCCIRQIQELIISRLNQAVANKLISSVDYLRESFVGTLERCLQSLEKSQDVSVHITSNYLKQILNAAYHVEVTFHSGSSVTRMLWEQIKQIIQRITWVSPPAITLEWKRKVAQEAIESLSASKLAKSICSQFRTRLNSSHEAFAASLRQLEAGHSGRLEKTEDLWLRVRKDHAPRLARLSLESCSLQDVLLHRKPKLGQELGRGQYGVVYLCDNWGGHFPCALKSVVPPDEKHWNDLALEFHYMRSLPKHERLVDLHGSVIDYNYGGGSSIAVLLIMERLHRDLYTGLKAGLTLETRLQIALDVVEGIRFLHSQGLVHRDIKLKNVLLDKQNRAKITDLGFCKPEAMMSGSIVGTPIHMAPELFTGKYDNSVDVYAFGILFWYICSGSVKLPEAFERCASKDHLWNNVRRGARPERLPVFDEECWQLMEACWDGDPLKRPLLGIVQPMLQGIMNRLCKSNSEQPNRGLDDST", "experiment": "Inhibition of RIPK5 (unknown origin) assessed as residual activity at 100 nM by KINOMEscan analysis relative to control"}, "[5]": {"target": "T2, Serine/threonine-protein kinase TAO2 (Homo sapiens) (UniProt Q9UL54)", "T2 sequence (whole entry)": "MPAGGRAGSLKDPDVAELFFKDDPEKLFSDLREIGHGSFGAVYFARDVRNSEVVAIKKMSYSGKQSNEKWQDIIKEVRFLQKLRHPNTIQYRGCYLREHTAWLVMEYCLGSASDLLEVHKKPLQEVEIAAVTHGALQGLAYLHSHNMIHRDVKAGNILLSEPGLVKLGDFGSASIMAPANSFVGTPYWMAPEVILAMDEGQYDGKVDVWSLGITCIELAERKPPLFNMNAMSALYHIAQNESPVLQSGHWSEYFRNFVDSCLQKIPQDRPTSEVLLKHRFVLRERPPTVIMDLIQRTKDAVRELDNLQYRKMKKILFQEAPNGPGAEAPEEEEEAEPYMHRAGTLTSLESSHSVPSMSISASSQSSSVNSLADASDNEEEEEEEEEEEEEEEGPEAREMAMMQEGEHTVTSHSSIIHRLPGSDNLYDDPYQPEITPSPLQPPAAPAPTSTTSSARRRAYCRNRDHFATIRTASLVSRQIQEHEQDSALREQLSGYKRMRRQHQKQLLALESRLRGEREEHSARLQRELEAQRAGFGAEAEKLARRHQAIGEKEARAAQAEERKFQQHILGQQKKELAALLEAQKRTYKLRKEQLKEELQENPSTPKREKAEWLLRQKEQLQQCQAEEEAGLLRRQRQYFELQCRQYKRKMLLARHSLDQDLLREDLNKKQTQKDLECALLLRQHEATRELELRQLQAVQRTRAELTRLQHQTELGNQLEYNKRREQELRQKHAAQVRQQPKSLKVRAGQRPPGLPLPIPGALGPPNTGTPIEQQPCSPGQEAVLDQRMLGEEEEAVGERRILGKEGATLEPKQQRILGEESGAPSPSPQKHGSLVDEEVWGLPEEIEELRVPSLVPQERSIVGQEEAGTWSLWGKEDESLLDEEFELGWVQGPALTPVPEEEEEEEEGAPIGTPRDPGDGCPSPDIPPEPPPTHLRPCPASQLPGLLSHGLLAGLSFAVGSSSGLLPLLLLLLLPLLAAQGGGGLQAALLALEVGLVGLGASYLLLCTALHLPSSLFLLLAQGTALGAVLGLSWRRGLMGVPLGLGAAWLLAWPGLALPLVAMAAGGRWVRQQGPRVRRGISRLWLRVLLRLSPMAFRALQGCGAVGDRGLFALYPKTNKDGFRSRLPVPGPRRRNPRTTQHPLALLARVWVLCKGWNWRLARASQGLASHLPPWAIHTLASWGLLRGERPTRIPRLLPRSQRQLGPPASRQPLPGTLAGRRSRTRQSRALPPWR", "experiment": "Inhibition of TAOK2 (unknown origin) assessed as residual activity at 100 nM by KINOMEscan analysis relative to control"}, "[6]": {"tested_on": "Proto-oncogene tyrosine-protein kinase receptor Ret (Homo sapiens), P07949 [M918T]", "sequence (P07949 whole entry M918T)": "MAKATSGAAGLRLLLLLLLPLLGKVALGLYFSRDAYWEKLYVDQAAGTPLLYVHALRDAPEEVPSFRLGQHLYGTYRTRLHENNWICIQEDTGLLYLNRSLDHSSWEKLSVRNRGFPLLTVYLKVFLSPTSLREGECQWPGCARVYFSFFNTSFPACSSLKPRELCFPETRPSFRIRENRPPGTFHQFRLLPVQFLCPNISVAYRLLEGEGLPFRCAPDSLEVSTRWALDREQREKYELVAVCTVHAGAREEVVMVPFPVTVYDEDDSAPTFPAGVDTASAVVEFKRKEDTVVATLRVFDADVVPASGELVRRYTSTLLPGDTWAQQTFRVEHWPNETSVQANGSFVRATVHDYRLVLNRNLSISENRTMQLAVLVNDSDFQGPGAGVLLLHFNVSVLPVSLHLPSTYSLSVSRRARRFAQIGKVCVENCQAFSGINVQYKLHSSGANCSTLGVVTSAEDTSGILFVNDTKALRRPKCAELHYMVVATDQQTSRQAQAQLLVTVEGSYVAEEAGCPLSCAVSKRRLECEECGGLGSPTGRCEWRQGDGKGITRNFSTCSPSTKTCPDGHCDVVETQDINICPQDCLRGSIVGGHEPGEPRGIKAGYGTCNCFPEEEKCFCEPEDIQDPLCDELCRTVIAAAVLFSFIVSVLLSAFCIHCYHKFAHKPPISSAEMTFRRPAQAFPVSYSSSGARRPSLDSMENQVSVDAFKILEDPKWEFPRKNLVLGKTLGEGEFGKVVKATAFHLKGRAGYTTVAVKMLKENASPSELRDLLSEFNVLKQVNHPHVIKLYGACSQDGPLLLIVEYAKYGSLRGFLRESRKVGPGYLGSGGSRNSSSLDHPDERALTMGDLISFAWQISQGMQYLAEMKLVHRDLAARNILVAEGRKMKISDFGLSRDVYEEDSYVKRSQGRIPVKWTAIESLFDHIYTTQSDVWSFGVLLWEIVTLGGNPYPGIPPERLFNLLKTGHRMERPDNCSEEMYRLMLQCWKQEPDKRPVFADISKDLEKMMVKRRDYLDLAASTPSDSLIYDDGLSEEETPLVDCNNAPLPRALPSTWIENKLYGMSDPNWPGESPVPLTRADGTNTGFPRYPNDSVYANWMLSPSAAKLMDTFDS", "experiment": "Inhibition of RET M918T mutant (unknown origin) assessed as residual activity at 100 nM by KINOMEscan analysis relative to control"}, "[7]": {"target": "Serine/threonine-protein kinase Chk2 (Homo sapiens) (UniProt O96017)", "sequence (O96017 whole entry)": "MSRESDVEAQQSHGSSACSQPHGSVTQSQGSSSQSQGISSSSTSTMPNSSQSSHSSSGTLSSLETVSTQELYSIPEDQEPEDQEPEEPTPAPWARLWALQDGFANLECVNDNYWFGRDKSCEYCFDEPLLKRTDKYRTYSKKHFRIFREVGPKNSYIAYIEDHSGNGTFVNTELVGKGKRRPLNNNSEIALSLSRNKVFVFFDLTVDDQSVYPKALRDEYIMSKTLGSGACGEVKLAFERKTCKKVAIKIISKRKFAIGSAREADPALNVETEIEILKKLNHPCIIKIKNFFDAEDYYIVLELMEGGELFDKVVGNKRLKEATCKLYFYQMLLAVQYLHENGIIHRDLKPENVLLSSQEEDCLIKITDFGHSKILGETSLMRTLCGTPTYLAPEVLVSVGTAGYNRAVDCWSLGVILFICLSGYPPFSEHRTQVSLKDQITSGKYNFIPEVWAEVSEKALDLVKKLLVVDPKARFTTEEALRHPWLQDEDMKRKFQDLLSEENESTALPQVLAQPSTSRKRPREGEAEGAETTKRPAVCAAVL", "experiment": "Inhibition of CHEK2 (unknown origin) assessed as residual activity at 100 nM by KINOMEscan analysis relative to control"}, "[8]": {"target": "Tyrosine-protein kinase JAK2 (Homo sapiens) (UniProt O60674)", "sequence (O60674 whole entry, the tested form may be a part)": "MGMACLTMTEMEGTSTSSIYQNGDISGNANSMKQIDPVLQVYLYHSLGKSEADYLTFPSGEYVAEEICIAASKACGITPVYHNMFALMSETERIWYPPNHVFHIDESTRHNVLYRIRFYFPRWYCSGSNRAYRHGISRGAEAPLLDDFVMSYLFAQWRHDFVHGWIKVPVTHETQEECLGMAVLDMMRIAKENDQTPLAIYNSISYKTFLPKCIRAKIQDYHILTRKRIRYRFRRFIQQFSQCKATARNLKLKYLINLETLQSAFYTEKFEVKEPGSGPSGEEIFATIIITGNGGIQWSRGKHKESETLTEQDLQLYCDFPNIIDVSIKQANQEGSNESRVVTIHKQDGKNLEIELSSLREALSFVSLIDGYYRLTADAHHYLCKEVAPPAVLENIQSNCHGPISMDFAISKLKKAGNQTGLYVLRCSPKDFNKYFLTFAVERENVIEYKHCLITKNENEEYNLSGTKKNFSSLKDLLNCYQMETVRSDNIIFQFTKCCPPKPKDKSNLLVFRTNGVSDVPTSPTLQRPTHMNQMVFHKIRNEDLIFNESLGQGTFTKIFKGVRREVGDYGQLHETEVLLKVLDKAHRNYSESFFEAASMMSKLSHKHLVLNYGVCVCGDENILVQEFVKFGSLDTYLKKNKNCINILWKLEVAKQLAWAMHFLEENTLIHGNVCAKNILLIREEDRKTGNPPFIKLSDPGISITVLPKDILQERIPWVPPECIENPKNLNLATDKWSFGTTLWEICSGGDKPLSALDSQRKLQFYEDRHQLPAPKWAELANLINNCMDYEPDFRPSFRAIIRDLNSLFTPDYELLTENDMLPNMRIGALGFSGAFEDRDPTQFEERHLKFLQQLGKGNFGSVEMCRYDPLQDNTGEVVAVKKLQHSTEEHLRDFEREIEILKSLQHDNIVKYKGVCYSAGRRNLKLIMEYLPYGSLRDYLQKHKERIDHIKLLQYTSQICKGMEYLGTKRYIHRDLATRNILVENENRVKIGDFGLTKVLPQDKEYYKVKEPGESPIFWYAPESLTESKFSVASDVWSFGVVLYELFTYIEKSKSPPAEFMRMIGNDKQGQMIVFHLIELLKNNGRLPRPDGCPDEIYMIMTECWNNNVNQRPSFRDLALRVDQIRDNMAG", "experiment": "Inhibition of JAK2 JH1 catalytic domain (unknown origin) assessed as residual activity at 100 nM by KINOMEscan analysis relative to control"}, "[9]": {"target": "Serine/threonine-protein kinase OSR1 (Homo sapiens) (UniProt O95747)", "sequence (O95747 whole entry, looked up)": "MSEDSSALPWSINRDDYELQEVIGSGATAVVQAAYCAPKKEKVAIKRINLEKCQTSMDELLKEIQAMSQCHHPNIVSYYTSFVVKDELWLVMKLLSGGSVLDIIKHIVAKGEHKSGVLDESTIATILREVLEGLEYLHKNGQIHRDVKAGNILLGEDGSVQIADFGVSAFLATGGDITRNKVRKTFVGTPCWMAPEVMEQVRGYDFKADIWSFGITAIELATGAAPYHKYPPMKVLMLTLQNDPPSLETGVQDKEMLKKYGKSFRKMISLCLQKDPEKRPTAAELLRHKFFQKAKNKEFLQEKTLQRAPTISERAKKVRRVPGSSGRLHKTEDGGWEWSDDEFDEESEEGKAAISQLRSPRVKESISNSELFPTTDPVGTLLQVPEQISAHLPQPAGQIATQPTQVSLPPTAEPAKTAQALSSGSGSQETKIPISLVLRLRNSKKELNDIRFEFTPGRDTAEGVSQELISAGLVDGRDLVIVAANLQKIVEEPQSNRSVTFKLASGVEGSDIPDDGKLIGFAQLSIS", "experiment": "Inhibition of OSR1 (unknown origin) assessed as residual activity at 100 nM by KINOMEscan analysis relative to control"}, "[10]": {"tested_on": "Receptor-type tyrosine-protein kinase FLT3 (Homo sapiens), P36888 [D835H]", "experiment": "Inhibition of FLT3 D835H mutant (unknown origin) assessed as residual activity at 100 nM by KINOMEscan analysis relative to control"}}, "data": [{"smiles": "COc1cc2ncnc(N[C@H](C)c3cccc4ccccc34)c2cc1OC", "values": [{"measurement": "Activity", "setting": "[1]", "value": 95, "unit": "%"}, {"measurement": "Activity", "setting": "[2]", "value": 91, "unit": "%"}, {"measurement": "Activity", "setting": "[3]", "value": 66, "unit": "%"}, {"measurement": "Activity", "setting": "[4]", "value": 96, "unit": "%"}, {"measurement": "Activity", "setting": "[5]", "value": 94, "unit": "%"}, {"measurement": "Activity", "setting": "[6]", "value": 99, "unit": "%"}, {"measurement": "Activity", "setting": "[7]", "value": 100, "unit": "%"}, {"measurement": "Activity", "setting": "[8]", "value": 93, "unit": "%"}, {"measurement": "Activity", "setting": "[9]", "value": 89, "unit": "%"}, {"measurement": "Activity", "setting": "[10]", "value": 92, "unit": "%"}]}]}
